Molecular target: T1, Human TRPC6 (Homo sapiens, UniProt Q9Y210)
T1 construct: expressed in transfected cells
T1 sequence (Q9Y210 1-931): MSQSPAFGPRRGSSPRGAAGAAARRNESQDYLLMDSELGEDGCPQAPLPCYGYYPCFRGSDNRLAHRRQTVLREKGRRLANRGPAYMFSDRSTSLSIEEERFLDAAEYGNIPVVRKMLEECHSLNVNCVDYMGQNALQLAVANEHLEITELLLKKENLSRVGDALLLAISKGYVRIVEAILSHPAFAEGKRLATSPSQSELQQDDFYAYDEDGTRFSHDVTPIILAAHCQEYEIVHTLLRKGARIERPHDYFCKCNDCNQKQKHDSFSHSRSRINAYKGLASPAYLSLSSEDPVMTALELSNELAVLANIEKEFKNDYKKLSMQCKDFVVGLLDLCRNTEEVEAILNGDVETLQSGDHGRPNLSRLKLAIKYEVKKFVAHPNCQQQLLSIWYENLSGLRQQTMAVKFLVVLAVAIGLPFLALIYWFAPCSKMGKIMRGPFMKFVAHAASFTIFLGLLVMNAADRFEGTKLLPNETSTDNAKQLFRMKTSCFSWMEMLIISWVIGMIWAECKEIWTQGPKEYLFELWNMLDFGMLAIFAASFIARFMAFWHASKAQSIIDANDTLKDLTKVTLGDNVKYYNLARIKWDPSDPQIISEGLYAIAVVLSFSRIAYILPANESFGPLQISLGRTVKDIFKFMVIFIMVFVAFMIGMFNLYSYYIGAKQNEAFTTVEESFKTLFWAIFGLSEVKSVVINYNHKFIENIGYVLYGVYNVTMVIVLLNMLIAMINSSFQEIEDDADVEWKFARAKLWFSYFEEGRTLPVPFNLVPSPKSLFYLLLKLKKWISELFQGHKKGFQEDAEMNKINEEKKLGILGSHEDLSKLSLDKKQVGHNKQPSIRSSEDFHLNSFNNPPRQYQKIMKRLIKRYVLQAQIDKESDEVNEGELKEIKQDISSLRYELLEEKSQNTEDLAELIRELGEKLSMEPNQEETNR
Test: Evaluation of TRPC6 channel inhibitory activity (1), FLIPR Calcium 5 Assay Kit, OAG stimulation (Compound Nos. 1-1293)
Assay type: cell-based
Conditions: Human TRPC6 stably-expressing cells, OAG 30 μM, FLIPR Calcium 5 Assay Kit; read-out: Inhibitory activity (pIC50 class) (converted)
Summary of the method: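 Stable human TRPC6 line; fluorescent Ca2+ dye loading, then 20 min compound exposure before 30 μM OAG trigger. Peak-minus-baseline signal converted to % inhibition against untreated and unstimulated wells; potency given as pIC50 band.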

| IC50 [nM] | Structure (SMILES) |
| --- | --- |
| > 1000 | Cc1nc(OCC(F)F)cc(Oc2cc(C#N)ccc2-c2ncc(CN)cn2)n1 [compound 897, 4-[5-(aminomethyl)pyrimidin-2-yl]-3-[6-(2,2-difluoroethoxy)-2-methylpyrimidin-4-yl]oxybenzonitrile] |
| > 1000 | Cc1cnc(N2CCOCC2)cc1Oc1cc(C#N)ccc1-c1ncc(CN)cn1 [compound 901, 4-[5-(aminomethyl)pyrimidin-2-yl]-3-(5-methyl-2-morpholin-4-ylpyridin-4-yl)oxybenzonitrile] |
| < 10 | Cn1nc(C(F)(F)F)cc1Oc1cc(C#N)ccc1-c1ncc([C@H](F)CN)cn1 [compound 903, 4-[5-[(1S)-2-amino-1-fluoroethyl]pyrimidin-2-yl]-3-[2-methyl-5-(trifluoromethyl)pyrazol-3-yl]oxybenzonitrile] |
| < 10 | Cn1nc(C(F)(F)F)cc1Oc1cc(C#N)ccc1-c1ncc([C@@H](F)CN)cn1 [compound 904, 4-[5-[(1R)-2-amino-1-fluoroethyl]pyrimidin-2-yl]-3-[2-methyl-5-(trifluoromethyl)pyrazol-3-yl]oxybenzonitrile] |
| < 10 | CN(C)c1cc(Oc2cc(C#N)ccc2-c2ncc([C@H](F)CN)cn2)n(C)n1 [compound 905, 4-[5-[(1S)-2-amino-1-fluoroethyl]pyrimidin-2-yl]-3-[5-(dimethylamino)-2-methylpyrazol-3-yl]oxybenzonitrile] |
| < 10 | CN(C)c1cc(Oc2cc(C#N)ccc2-c2ncc([C@@H](F)CN)cn2)n(C)n1 [compound 906, 4-[5-[(1R)-2-amino-1-fluoroethyl]pyrimidin-2-yl]-3-[5-(dimethylamino)-2-methylpyrazol-3-yl]oxybenzonitrile] |
| < 10 | CC(C)Cn1cc(Oc2cc(C#N)ccc2-c2ncc(CCN)cn2)cn1 [compound 907, 4-[5-(2-aminoethyl)pyrimidin-2-yl]-3-[1-(2-methylpropyl)pyrazol-4-yl]oxybenzonitrile] |

More lines, now with the values behind:

| Structure (SMILES) | IC50 [nM] |
| --- | --- |
| Cc1nc(OCC(F)(F)F)cc(Oc2cc(C#N)ccc2-c2ncc(CN)cn2)n1 [compound 893, 4-[5-(aminomethyl)pyrimidin-2-yl]-3-[2-methyl-6-(2,2,2-trifluoroethoxy)pyrimidin-4-yl]oxybenzonitrile] | > 1000 |
| Cc1nc(OCC2(C)COC2)cc(Oc2cc(C#N)ccc2-c2ncc(CN)cn2)n1 [compound 894, 4-[5-(aminomethyl)pyrimidin-2-yl]-3-[2-methyl-6-[(3-methyloxetan-3-yl)methoxy]pyrimidin-4-yl]oxybenzonitrile] | > 1000 |
| Cc1nc(Oc2cc(C#N)ccc2-c2ncc(CN)cn2)cc(OC2COC2)n1 [compound 895, 4-[5-(aminomethyl)pyrimidin-2-yl]-3-[2-methyl-6-(oxetan-3-yloxy)pyrimidin-4-yl]oxybenzonitrile] | > 1000 |
| Cc1nc(Oc2cc(C#N)ccc2-c2ncc(CN)cn2)cc(OC(C)C)n1 [compound 896, 4-[5-(aminomethyl)pyrimidin-2-yl]-3-(2-methyl-6-propan-2-yloxypyrimidin-4-yl)oxybenzonitrile] | 10 to 1000 |
| Cc1nc(Oc2cc(C#N)ccc2-c2ncc(CN)cn2)cc(OC2CC2)n1 [compound 898, 4-[5-(aminomethyl)pyrimidin-2-yl]-3-(6-cyclopropyloxy-2-methylpyrimidin-4-yl)oxybenzonitrile] | > 1000 |
| Cc1cc(Oc2cc(C#N)c(C)cc2-c2ncc(CN)cn2)cc(N2CCOCC2)n1 [compound 899, 4-[5-(aminomethyl)pyrimidin-2-yl]-2-methyl-5-(2-methyl-6-morpholin-4-ylpyridin-4-yl)oxybenzonitrile] | 10 to 1000 |
| Cc1cc(Oc2cc(C#N)c(C)cc2-c2ncc(CCN)cn2)cc(N2CCOCC2)n1 [compound 900, 4-[5-(2-aminoethyl)pyrimidin-2-yl]-2-methyl-5-(2-methyl-6-morpholin-4-ylpyridin-4-yl)oxybenzonitrile] | < 10 |
| Cc1cnc(N2CCOCC2)cc1Oc1cc(C#N)ccc1-c1ncc(CCN)cn1 [compound 902, 4-[5-(2-aminoethyl)pyrimidin-2-yl]-3-(5-methyl-2-morpholin-4-ylpyridin-4-yl)oxybenzonitrile] | 10 to 1000 |

— US20230167073A1 (Teijin Pharma Limited, priority 2020, published 2023)
